Data published in patent US20100292209A1, “METHODS FOR IDENTIFYING COMPOUNDS THAT MODULATE NEUROTROPHIC FACTOR SIGNALING” (Massachusetts Institute of Technology, priority 2007, published 2010).

Legend:
PC12-ErbB4-GFP cells [1] = test: Nrg1-induced neurite outgrowth, live-cell imaging; format: cell-based
Method: Average outgrowth per cell was measured after 2 days incubation. C. Cells were pretreated with Iressa or Tarceva at various concentrations for 30 minutes followed by 20 ng/ml Nrg1. Mean outgrowth per cell was measured after 2 days incubation. D. Cells were pretreated with 2 μM Iressa or DMSO for 30 minutes followed by 20 ng/ml Nrg1 or NGF and lysed after 5 minutes. Cell lysates were immunoprecipitated by anti-ErbB4 antibody followed by western blotting with antibodies against phospho-tyrosine and ErbB4. Phosphor-ERK1/2 and total Erk2 levels were determined by direct western blotting with cell lysates.
C. […] Mean outgrowth per cell was measured after 2 days incubation.

ERK/MAPK = ERK/MAPK phosphorylation (western blot of cell lysates); format: cell-based
Method: (§1) Average outgrowth per cell was measured after 2 days incubation. C. Cells were pretreated with Iressa or Tarceva at various concentrations for 30 minutes followed by 20 ng/ml Nrg1. Mean outgrowth per cell was measured after 2 days incubation. D. […] Cell lysates were immunoprecipitated by anti-ErbB4 antibody followed by western blotting with antibodies against phospho-tyrosine and ErbB4. Phosphor-ERK1/2 and total Erk2 levels were determined by direct western blotting with cell lysates.
(§2) Cells were lysed with RIPA buffer (Pierce Technology, Rockford, Ill.) containing 1 tablet/10 ml protease inhibitor cocktail Complete Mini (Roche Applied Science). For phosphoprotein analysis, Halt Phosphatase Inhibitor Cocktail (Pierce Technology) was also included. Cell lysate was cleared by centrifuge at 15,000 rpm for 30 min followed by addition of LDS sample buffer (Invitrogen) for direct analysis or immunoprecipitated with specific primary antibodies and Protein A/G agarose (Pierce Technology) following the manufacturer's protocol. […] The membrane was probed with specific primary antibodies according to specified recipes provided by their vendors and then horse radish peroxidase-conjugated secondary antibody to mouse or rabbit IgG (GE Healthcare, Piscataway, N.J.). Target protein bands were detected with SuperSignal West Femto Max Sensitivity Substrate (Pierce Technology).

ErbB4 [2] = target: T1, ErbB4 (Homo sapiens, UniProt Q15303); test: Nrg1-induced ErbB4 phosphorylation (immunoprecipitation, western blot); format: cell-based; conditions: 1 μM Iressa, 20 ng/ml Nrg1, lysed after 5 minutes
T1 construct: expressed in transfected cells
Method: as §1, §2

ErbB4 [3] = target: T1, ErbB4; test: Iressa-conjugated agarose (iTrap) affinity capture of ErbB4 from cell lysate; format: binding; conditions: 10 uM free Iressa
Method: PC12-ErbB4-GFP cells were lysed with modified RIPA buffer at 4° C. for 10 min and the cell lysate was cleared by centrifugation. The cleared lysate (0.40 ml) was tumbled with Iressa (10 μM) or DMSO (1:1000 v/v) as indicated at 4° C. for 30 min before addition of the iTrap resin (10 μA). The resulting mixture was tumbled at 4° C. for 12 hours. The suspension was centrifuged and the supernatant was discarded. The resin was washed with the above modified RIPA buffer (1.0 ml) for four times. The captured proteins were separated by SDS-PAGE. The Western immunoblotting experiment was then performed using anti-ErbB4 antibody.
Agarose beads (iTrap) conjugated with a derivative of Iressa (Iressa—2, FIG. 6A) were used to examine the affinity of Iressa against ErbB4.

PC12-ErbB4-GFP cells [4] = test: NGF-induced neurite outgrowth, live-cell imaging; format: cell-based
PC12-ErbB4 = test: Uptake of Alexa594-labeled Nrg1; format: cell-based; conditions: K252a 50 nM 12 hrs, then Alexa594-labeled Nrg1 30 min, compared to DMSO-treated cells
Method: (§3) A. Cells were treated without or with K252a (50 nM), K252a-Me (50 nM) for 30 min followed by treatment with or without 20 ng/mL Nrg1. Cells were lysed 12 hrs after Nrg1 treatment and analyzed by Western blot with anti-ErbB4 antibody. The bands that correspond to ErbB4 are indicated. B. Cells were treated without or with K252a (50 nM), K252a-Me (50 nM) for 12 hrs then fixed and immunostained with anti-ErbB4 and Alexa594 conjugated secondary antibody. GFP and Alexa594 fluorescent cell images were taken using a 20× objective. C. Cells were treated without or with K252a (50 nM) for 12 hrs followed by treatment of 20 ng/mL Alexa594-Nrg1 for 30 mins and fixed. GFP and Alexa594 fluorescent cell images were taken using a 40× objective.
(§4) This phenomenon, confirmed by immunofluorescence staining for ErbB4 in PC12-ErbB4 (FIG. 7B), might explain why K252a potentiate Nrg1-induced neurite outgrowth. To verify that increased level of ErbB4 does contribute to neuregulin signaling, we examined the Nrg1 uptake with Alexa594-labeled Nrg1 (FIG. 7C). Cells were treated with K252a for 12 hrs followed by Alexa594-labeled Nrg1 for 30 min.

ErbB4 [5] = test: ErbB4 level (western blot, immunofluorescence staining); format: cell-based, human; conditions: 50 nM, 12 hrs treatment, PC12-ErbB4
Method: as §3, §4

NGF-TrkA signaling = conditions: compared with K252a; cited from earlier work
neurotrophin-3 = conditions: cited from earlier work
[6] = test system: cultured hippocampal neurons; conditions: cited from earlier work
PFC pyramidal neuron = PFC pyramidal neuron current assay; cited from earlier work

T1 sequence (Q15303 26-1292 isoform Q15303-3 limits assumed): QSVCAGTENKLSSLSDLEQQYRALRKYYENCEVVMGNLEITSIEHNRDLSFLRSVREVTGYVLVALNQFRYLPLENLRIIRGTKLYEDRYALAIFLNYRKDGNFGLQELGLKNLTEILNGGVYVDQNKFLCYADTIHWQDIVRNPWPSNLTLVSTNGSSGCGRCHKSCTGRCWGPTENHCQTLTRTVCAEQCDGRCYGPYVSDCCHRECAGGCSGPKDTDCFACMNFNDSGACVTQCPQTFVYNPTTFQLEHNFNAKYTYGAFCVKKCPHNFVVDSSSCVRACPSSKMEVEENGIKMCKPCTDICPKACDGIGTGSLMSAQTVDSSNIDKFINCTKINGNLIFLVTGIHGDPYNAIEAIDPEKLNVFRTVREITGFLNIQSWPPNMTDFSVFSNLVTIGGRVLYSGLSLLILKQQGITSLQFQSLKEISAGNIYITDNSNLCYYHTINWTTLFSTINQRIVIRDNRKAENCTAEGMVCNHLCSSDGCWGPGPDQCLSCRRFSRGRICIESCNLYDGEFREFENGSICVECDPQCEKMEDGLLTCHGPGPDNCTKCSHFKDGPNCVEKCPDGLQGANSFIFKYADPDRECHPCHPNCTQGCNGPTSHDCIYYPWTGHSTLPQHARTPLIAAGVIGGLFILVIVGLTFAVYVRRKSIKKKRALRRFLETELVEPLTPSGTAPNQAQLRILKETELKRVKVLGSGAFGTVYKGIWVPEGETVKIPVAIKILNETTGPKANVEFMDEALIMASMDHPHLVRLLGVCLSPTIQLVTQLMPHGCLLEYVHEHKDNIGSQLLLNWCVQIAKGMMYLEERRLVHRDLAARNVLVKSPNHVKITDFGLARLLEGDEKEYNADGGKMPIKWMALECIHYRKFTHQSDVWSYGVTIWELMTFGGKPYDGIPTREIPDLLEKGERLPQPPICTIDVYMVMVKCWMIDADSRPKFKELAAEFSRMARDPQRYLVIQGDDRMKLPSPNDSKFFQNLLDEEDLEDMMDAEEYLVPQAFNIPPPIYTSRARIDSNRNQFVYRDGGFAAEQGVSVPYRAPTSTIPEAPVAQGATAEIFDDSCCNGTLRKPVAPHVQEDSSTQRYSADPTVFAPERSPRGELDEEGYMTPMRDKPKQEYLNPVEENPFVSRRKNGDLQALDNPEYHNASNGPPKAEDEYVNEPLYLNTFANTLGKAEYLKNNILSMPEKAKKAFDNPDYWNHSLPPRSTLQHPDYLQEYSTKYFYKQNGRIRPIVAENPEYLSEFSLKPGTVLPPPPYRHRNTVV

## COc1cc2ncnc(Nc3cccc(Cl)c3)c2cc1OC [AG1478, 4-(3-Chloroanilino-6,7-dimethoxy)-quinazoline]
PC12-ErbB4-GFP cells [1]; 1 μM AG1478, 20 ng/ml Nrg1, 2 days
  effect on Nrg1-induced neurite outgrowth: can specifically inhibit

## COc1cc2ncnc(Nc3ccc(F)c(Cl)c3)c2cc1OCCCN1CCOCC1 [Iressa, N-(3-chloro-4-fluoro-phenyl)-7-methoxy-6-(3-morpholin-4-ylpropoxy)quinazolin-4-amine]
ERK/MAPK; 20 ng/ml Nrg1
  subsequent phosphorylation of ERK/MAPK (Nrg1-induced): diminished
ERK/MAPK; Iressa, 20 ng/ml NGF
  NGF-induced MAPK activation: did not affect
ErbB4 [2]
  phosphorylation of ErbB4 receptors induced by Nrg1: inhibited
ErbB4 [3]
  precipitation of ErbB4 by iTrap in competition with free Iressa: attenuated

## COC(=O)[C@@]1(O)C[C@H]2O[C@]1(C)n1c3ccccc3c3c4c(c5c6ccccc6n2c5c31)C(=O)NC4 [K252a, methyl (5R,6R,8R)-6-hydroxy-5-methyl-13-oxo-5,6,7,8,14,15-hexahydro-13H-5,8-epoxy-4b,8a,14-triazadibenzo[b,h]cycloocta[1,2,3,4-jkl]cyclopenta[e]-as-indacene-6-carboxylate]
PC12-ErbB4-GFP cells [1]; same concentration range (10 nM)
  potentiation of Nrg1-induced neurite outgrowth: potentiated
PC12-ErbB4-GFP cells [4]; K252a at 10 nM
  inhibition of NGF-induced neurite outgrowth: completely inhibited
PC12-ErbB4
  Nrg1 uptake: significantly higher
ErbB4 [5]
  level of ErbB4: significantly increased

## CC12OC(CC1(O)C(=O)O)n1c3ccccc3c3c4c(c5c6ccccc6n2c5c31)C(=O)NC4 (centres unmarked) [K252b]
NGF-TrkA signaling
  potency on inhibiting NGF-TrkA signaling: much lower potency
neurotrophin-3
  trophic action of neurotrophin-3: potentiates

## O=C1NCc2c1c1c3ccccc3[nH]c1c1[nH]c3ccccc3c21 [K252c]
PC12-ErbB4-GFP cells [1]; single dose (10 micromolar), 48 hours
  effect on Nrg1-induced neurite outgrowth in kinase inhibitor screening: potentiates

## CNc1cc2c(Nc3cccc(Br)c3)ncnc2cn1 [PD158780]
[6]
  Nrg1 induced neurite outgrowth in cultured hippocampal neurons: decreases
PFC pyramidal neuron
  decrement in current caused by Nrg1: reverses

## C#Cc1cccc(Nc2ncnc3cc(OCCOC)c(OCCOC)cc23)c1 [Tarceva, N-(3-ethynylphenyl)-6,7-bis(2-methoxyethoxy)quinazolin-4-amine]
PC12-ErbB4-GFP cells [1]; read-out: IC50 of inhibition of Nrg1-induced neurite outgrowth
  IC50: 500 nM
PC12-ErbB4-GFP cells [4]; concentration range of 100 nM˜1 (data not shown)
  inhibition of NGF-induced neurite outgrowth: not inhibited

## NGF: Nerve Growth Factor, neurotrophin
PC12-ErbB4-GFP cells [4]; 20 ng/ml, in the presence of DMSO, 48 hours
  mean neurite length induced by NGF: 8.7±1.5 μm
